Tested on: experimental rats in hemorrhagic shock
Assay: hemorrhagic shock in rats with blockage of digestive enzymes in the lumen of the intestine
Type: in vivo
Conditions: hemorrhagic shock (two hour reduction of blood pressure), inhibitor infused into the lumen of the intestine
Excerpt: Fetid organic material was released from animals subject to autodigestion by pancreatic enzymes, but not from those that were not subject to autodigestion. Non-surviving animals uniformly released fetid organic material, while survivors produced dramatically lower levels. For example, animals with blockage of digestive enzymes in the lumen of the intestine (by infusion of pancreatic serine protease inhibitors, such as cyclokapron) in hemorrhagic shock had lower levels of substances such as putrescine, cadaverine, methional, and transthyretin.

Q: Which “levels of substances such as putrescine, cadaverine, methional, and transthyretin” value does the source give for `NC[C@H]1CC[C@H](C(=O)O)CC1` [cyclokapron] here?
A: lower levels
